Measured values from patent US20050176758A1, “NOVEL COMPOUNDS AND METHODS FOR SYNTHESIS AND THERAPY” (priority 1995, published 2005).

Legend:
[1] = literature reports; cited from earlier work
neuraminidase = neuraminidase (Influenza A virus, UniProt P03468)
Description: Compositions of the invention are screened for inhibitory activity against neuraminidase by any of the conventional techniques for evaluating enzyme activity.
Enzyme Inhibition: Using the methods of screening in vitro activity described above, the following activities were observed (+10-100 μm, ++1-10 μm, +++<1.0 μm):

[2] = Water solubility of salt form; assay type: physicochemical; conditions: HCl salt form (dissolved in 3N HCl and lyophilized)
Method: Amino ethyl ester 262: Triphenyl phosphine (342 mg, 1.30 mmol) was added in one portion to a solution of 261 ([…], 0.80 mmol) in THF (17 mL) and water (1.6 mL). The reaction was then heated at 50° C. for 10 h, cooled and concentrated in vacuo to give a pale white solid. Purification of the crude solid by flash chromatography on silica gel (50% methanol in ethyl acetate) gave 242 mg (96%) of the amino ethyl ester 262 as a pale solid. The amino ethyl ester is dissolved in 3N HCl and lyophilized to give the corresponding water soluble HCl salt form. ^1H NMR (D2O, 300 MHz): δ 6.84 (s, 1H); 4.36-4.30 (br m, 1H); 4.24 (q, 2H, J=7.2 Hz); 4.05 (dd, 1H, J=9.0, 11.7 Hz); 3.63-3.50 (m, 2H); 2.95 (dd, 1H, J=5.7, 17.1 Hz); 2.57-2.45 (m, 1H); 1.60-1.39 (m, 4H); 1.27 (t, 3H, J=7.2 Hz); 0.89-0.80 (m, 6H).

Chain of neuraminidase (P03468 whole entry): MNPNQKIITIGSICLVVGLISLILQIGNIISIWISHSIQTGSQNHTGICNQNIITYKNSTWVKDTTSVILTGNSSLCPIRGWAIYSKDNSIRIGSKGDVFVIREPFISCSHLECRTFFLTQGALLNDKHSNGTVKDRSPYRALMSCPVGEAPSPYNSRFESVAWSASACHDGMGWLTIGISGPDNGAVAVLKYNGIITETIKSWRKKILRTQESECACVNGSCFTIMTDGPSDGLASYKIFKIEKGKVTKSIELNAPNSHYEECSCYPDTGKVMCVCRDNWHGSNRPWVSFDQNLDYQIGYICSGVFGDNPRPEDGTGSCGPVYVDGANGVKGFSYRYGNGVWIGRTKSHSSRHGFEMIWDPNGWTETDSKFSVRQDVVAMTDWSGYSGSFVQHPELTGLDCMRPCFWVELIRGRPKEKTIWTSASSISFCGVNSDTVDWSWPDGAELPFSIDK

CC(=O)N[C@H]1[C@H]([C@H](O)[C@H](O)CO)OC(C(=O)O)=C[C@@H]1N=C(N)N [GG167, 4-guanidino-2,4-dideoxy-2,3-dehydro-N-acetylneuraminic acid]
Toxicity [1]: nontoxic

CC(=O)N[C@@H]1[C@@H](N)CC(C(=O)O)=C[C@H]1OCC(O)CO (stereo partly shown) [compound 8]
IC50 (neuraminidase): 1 to 10 µM

CC(=O)NC1C(O)C=C(C(=O)O)CC1NC(=N)N (stereo not shown) [compound 94]
IC50 (neuraminidase): < 1 µM

CCOC(=O)C1=CC(OC(CC)CC)C(NC(C)=O)C(N)C1 (stereo not shown) [compound 262]
Water solubility [2]: water soluble
